The source of these data is patent US20250195521A1 (Revolution Medicines, Inc., priority 2020, published 2025).

Bounds are passed on as bounds.

One experiment has as its target NRAS Q61R (Homo sapiens (Human), UniProt P01111+P62937, Q61R). The experiment in a line: Ras-Raf disruption/FRET/MOA assay (BRAF RBD, Cyclophilin A). In kind it is biochemical. The essentials: (§1)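 First, 25 μM Cyclophilin A, 12.5 nM His6-Ras-GMPPNP and 50 nM GST-BRAF RBD are mixed with diluted compound at pH 7.3. Next, 3 h at 25° C. Then 10 nM anti-His Eu-W1024 plus 50 nM anti-GST allophycocyanin for 1.5 h before TR-FRET reading.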

A further experiment deals with KRAS Q61H (Homo sapiens (Human), UniProt P01116+P62937, Q61H). The experiment is described as above. It is filed as biochemical. In a few lines: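 TR-FRET read after 1.5 h with 10 nM anti-His Eu-W1024 and 50 nM anti-GST APC, following 3 h at 25 °C of GMPPNP-loaded His6-Ras (12.5 nM), GST-BRAF RBD (50 nM) and Cyclophilin A (25 μM) with compound from 30 μM final, 10 points, 3-fold. IC50 reported; pH 7.3 HEPES, 100 mM NaCl.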

The next experiment concerns the target NRAS WT (Homo sapiens (Human), UniProt P01111+P62937). The description is as above. In kind it is biochemical. In a few lines:
as §1

The target in another experiment is NRAS Q61K (Homo sapiens (Human), UniProt P01111+P62937, Q61K). The description is as above. In kind it is biochemical. In a few lines: as §1
The test system of another experiment is NCI-H358 (K-Ras G12C). The experiment can be described thus: CellTiter-Glo cell viability assay, NCI-H358. Particulars: Homo sapiens, NCI-H358, 120 h, 5-day treatment; read-out: H358 Cell Viability assay data (K-Ras G12C, IC50). It is filed as cell-based, human. In a few lines:
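NCI-H358 (K-Ras G12C) cells treated with compound dispensed directly into plates. CellTiter-Glo luminescence read on day 5 after ~30 min equilibration to room temperature. Signal normalised to DMSO average ×100, then fitted with a four-parameter logistic model.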
(ATP-based viability assays read luminescence as a measure of living cells.)

Experiment [1] concerns K-Ras G12C (NCI-H358 cells). The experiment can be described thus: Potency assay: pERK in NCI-H358 cells. It is filed as cell-based, human. Particulars: Homo sapiens; NCI-H358 cells, 4 hours; read-out: pERK EC50 (H358 KRAS G12C). The essentials:
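Cells plated the day before were exposed for 4 h at 37° C, 5% CO2 to a 10-point, 3-fold DMSO dilution series (10 mM top stock), in duplicate. Phospho-ERK was read by AlphaLISA SureFire Ultra or by In-Cell Western with DRAQ5 DNA stain, and IC50 came from a 4-parameter sigmoidal fit.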

Chain of NRAS Q61K (P01111 whole entry Q61K): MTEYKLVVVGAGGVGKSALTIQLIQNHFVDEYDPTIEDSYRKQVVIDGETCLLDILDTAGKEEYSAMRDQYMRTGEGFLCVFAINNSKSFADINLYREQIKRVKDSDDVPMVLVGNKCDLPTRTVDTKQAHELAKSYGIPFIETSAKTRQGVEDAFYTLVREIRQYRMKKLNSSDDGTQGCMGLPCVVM
Chain of NRAS Q61K (P62937 whole entry): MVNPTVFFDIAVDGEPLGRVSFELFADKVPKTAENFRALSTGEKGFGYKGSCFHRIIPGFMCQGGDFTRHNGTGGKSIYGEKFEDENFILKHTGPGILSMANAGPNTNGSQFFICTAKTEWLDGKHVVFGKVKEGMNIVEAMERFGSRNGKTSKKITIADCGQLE
Chain of NRAS Q61R (P01111 whole entry Q61R): as the sequence (P01111 whole entry Q61K) above, with K61R counted along it
Chain of NRAS Q61R (P62937 whole entry): as the sequence (P62937 whole entry) above
Chain of NRAS WT (P01111 whole entry): as the sequence (P01111 whole entry Q61K) above, with K61Q counted along it
Chain of NRAS WT (P62937 whole entry): as the sequence (P62937 whole entry) above
Chain of KRAS Q61H (P01116 other isoform, or with tags, fused parts or gaps Q61H): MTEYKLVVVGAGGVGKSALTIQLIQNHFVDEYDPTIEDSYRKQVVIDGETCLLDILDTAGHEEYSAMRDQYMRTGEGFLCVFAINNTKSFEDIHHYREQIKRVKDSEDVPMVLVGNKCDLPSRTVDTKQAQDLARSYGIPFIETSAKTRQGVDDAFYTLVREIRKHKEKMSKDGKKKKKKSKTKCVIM
Chain of KRAS Q61H (P62937 whole entry): as the sequence (P62937 whole entry) above

As a reminder, the IC50 is the concentration that inhibits the measured activity by half. For orientation: EC50 means the concentration needed to bring the measured effect to its halfway point. Regarding `CCn1c(-c2cccnc2[C@H](C)OC)c2c3cc(ccc31)-c1cc(O)cc(c1)C[C@H](NC(=O)[C@@H]1[C@H]3C[C@H]3CN1C(C)=O)C(=O)N1CCC[C@H](N1)C(=O)OCC(C)(C)C2` [Compound A207], the IC50 fell in the range of 1000 to 10000 nM against NRAS Q61R; 100 to 1000 nM at KRAS Q61H; 1000 to 10000 nM on NRAS WT; 1000 to 10000 nM against NRAS Q61K; 10 to 100 nM in the experiment with NCI-H358 (K-Ras G12C). Moreover, the EC50 in experiment [1] was less than 5 µM.
Take `CCn1c(-c2cccnc2[C@H](C)OC)c2c3cc(ccc31)-c1cc(O)cc(c1)C[C@H](NC(=O)[C@@H]1[C@@H](C)CCCN1C(C)=O)C(=O)N1CCC[C@H](N1)C(=O)OCC(C)(C)C2` [Compound A324]: the IC50 on NRAS Q61R is 1000 to 10000 nM; at KRAS Q61H, 10 to 100 nM; at NRAS WT it was 100 to 1000 nM; at NRAS Q61K, 100 to 1000 nM; in the experiment on NCI-H358 (K-Ras G12C), less than 10 nM. Moreover, the EC50 in experiment [1] is less than 5 µM.
On to `CCn1c(-c2cccnc2[C@H](C)OC)c2c3cc(ccc31)-c1csc(n1)C[C@H](NC(=O)C1CC1)C(=O)N1CCC[C@H](N1)C(=O)OCC(C)(C)C2` [Compound A367], for which the IC50 was in the range of 1000 to 10000 nM on NRAS Q61R; 100 to 1000 nM at KRAS Q61H; 100 to 1000 nM on NRAS WT; 100 to 1000 nM against NRAS Q61K; 10 to 100 nM in the experiment with NCI-H358 (K-Ras G12C). The EC50 in experiment [1] is less than 5 µM.
Regarding `CCn1c(-c2cccnc2[C@H](C)OC)c2c3cc(ccc31)-c1cc(O)cc(c1)C[C@H](NC(=O)[C@H](C(C)C)N(C)C(=O)C13CC(CO1)C3)C(=O)N1CCC[C@H](N1)C(=O)OCC(C)(C)C2` [Compound A406], the IC50 on NRAS Q61R lay in the range of 100 to 1000 nM; against KRAS Q61H, 10 to 100 nM; on NRAS WT, 10 to 100 nM; on NRAS Q61K, 100 to 1000 nM; in the experiment with NCI-H358 (K-Ras G12C), 10 to 100 nM. For the same compound, in experiment [1], the EC50 was less than 5 µM.
On to `CCn1c(-c2cccnc2[C@H](C)OC)c2c3cc(ccc31)-c1csc(n1)C[C@H](NC(=O)[C@H](C(C)C)N(C)C(=O)N1CCO[C@@]3(CCN(C)C3)C1)C(=O)N1CCC[C@H](N1)C(=O)OCC(C)(C)C2` [Compound A436], for which the IC50 against NRAS Q61R was 100 to 1000 nM; on KRAS Q61H, 100 to 1000 nM; against NRAS WT, 100 to 1000 nM; against NRAS Q61K, 100 to 1000 nM; in the experiment on NCI-H358 (K-Ras G12C) it was 10 to 100 nM. For the same compound, the EC50 in experiment [1] is less than 5 µM.
In the case of `CCn1c(-c2cc(N3CCN(C)CC3)cnc2[C@H](C)OC)c2c3cc(ccc31)-c1csc(n1)C[C@H](NC(=O)[C@H](C(C)C)N(C)C(=O)[C@@H]1CCCS1(=O)=O)C(=O)N1CCC[C@H](N1)C(=O)OCC(C)(C)C2` [Compound A440], the IC50 is 100 to 1000 nM against NRAS Q61R; 100 to 1000 nM at KRAS Q61H; 100 to 1000 nM at NRAS WT; 100 to 1000 nM on NRAS Q61K; less than 10 nM in the experiment on NCI-H358 (K-Ras G12C). The concentration for a half-maximal effect (EC50) in experiment [1] was less than 5 µM.
`CCn1c(-c2cccnc2[C@H](C)OC)c2c3cc(ccc31)-c1csc(n1)C[C@H](NC(=O)[C@H](C(C)C)N(C)C(=O)N1C[C@H]3CN(C)CC[C@H]31)C(=O)N1CCC[C@H](N1)C(=O)OCC(C)(C)C2` [Compound A462]: the IC50 against NRAS Q61R was 1000 to 10000 nM; on KRAS Q61H, 100 to 1000 nM; on NRAS WT, 1000 to 10000 nM; against NRAS Q61K, 100 to 1000 nM; with NCI-H358 (K-Ras G12C) it was less than 10 nM. In experiment [1], the EC50 was less than 5 µM.
As to `CCn1c(-c2cccnc2[C@H](C)OC)c2c3cc(ccc31)-c1csc(n1)C[C@H](NC(=O)[C@H](C(C)C)N(C)C(=O)N1CC[C@H]1CN)C(=O)N1CCC[C@H](N1)C(=O)OCC(C)(C)C2` [Compound A463], the IC50 at NRAS Q61R is 1000 to 10000 nM; at KRAS Q61H, 100 to 1000 nM; against NRAS WT, 100 to 1000 nM; at NRAS Q61K, 1000 to 10000 nM; in the experiment on NCI-H358 (K-Ras G12C), less than 10 nM. For the same compound, the EC50 in experiment [1] was less than 5 µM.
Turning to `CCn1c(-c2cccnc2[C@H](C)OC)c2c3cc(ccc31)-c1csc(n1)C[C@H](NC(=O)[C@H](C(C)C)N(C)C(=O)N1CC[C@]3(CCNC3=O)C1)C(=O)N1CCC[C@H](N1)C(=O)OCC(C)(C)C2` [Compound A479], the IC50 was 1000 to 10000 nM against NRAS Q61R; 100 to 1000 nM against KRAS Q61H; 100 to 1000 nM at NRAS WT; 100 to 1000 nM at NRAS Q61K; less than 10 nM in the experiment with NCI-H358 (K-Ras G12C). For the same compound, the EC50 in experiment [1] was less than 5 µM.
As to `CCn1c(-c2cccnc2[C@H](C)OC)c2c3cc(ccc31)-c1csc(n1)C[C@H](NC(=O)[C@H](C(C)C)N(C)C(=O)N(C)C1(C)COC1)C(=O)N1CCC[C@H](N1)C(=O)OCC(C)(C)C2` [Compound A527], the IC50 was 100 to 1000 nM against NRAS Q61R; 100 to 1000 nM against KRAS Q61H; 100 to 1000 nM at NRAS WT; 100 to 1000 nM at NRAS Q61K; less than 10 nM with NCI-H358 (K-Ras G12C). In experiment [1], the EC50 was less than 5 µM.
`CCn1c(-c2cccnc2[C@H](C)OC)c2c3cc(ccc31)-c1csc(n1)C[C@H](NC(=O)[C@H](C(C)C)N(C)C(=O)N1CCCC13CN(C)C3)C(=O)N1CCC[C@H](N1)C(=O)OCC(C)(C)C2` [Compound A545]: the IC50 against NRAS Q61R was 100 to 1000 nM; at KRAS Q61H, 10 to 100 nM; at NRAS WT it was 10 to 100 nM; against NRAS Q61K, 100 to 1000 nM; in the experiment with NCI-H358 (K-Ras G12C) it was 10 to 100 nM. For the same compound, the EC50 in experiment [1] was less than 5 µM.
On to `CCn1c(-c2cccnc2[C@H](C)OC)c2c3cc(ccc31)-c1csc(n1)C[C@H](NC(=O)[C@H](C(C)C)N(C)C(=O)N1CC[C@@H]1CN)C(=O)N1CCC[C@H](N1)C(=O)OCC(C)(C)C2` [Compound A558], for which the IC50 against NRAS Q61R fell in the range of 100 to 1000 nM; against KRAS Q61H, 10 to 100 nM; against NRAS WT, 10 to 100 nM; on NRAS Q61K it was 100 to 1000 nM; in the experiment on NCI-H358 (K-Ras G12C), 10 to 100 nM. Also, the EC50 in experiment [1] is less than 5 µM.
`CCn1c(-c2cccnc2[C@H](C)OC)c2c3cc(ccc31)-c1cccc(c1)C[C@H](NC(=O)[C@H](C(C)C)N(C)C(=O)[C@@H]1OCC[C@@H]1c1ccccc1)C(=O)N1CCC[C@H](N1)C(=O)OCC(C)(C)C2` [Compound A586]: the IC50 at NRAS Q61R, on KRAS Q61H, against NRAS WT and at NRAS Q61K was 100 to 1000 nM throughout. Also, the EC50 in experiment [1] was less than 5 µM.
On to `CCn1c(-c2cccnc2[C@H](C)OC)c2c3cc(ccc31)-c1csc(n1)C[C@H](NC(=O)[C@H](C(C)C)N(C)C(=O)N1CC(O)(CN(C)C)C1)C(=O)N1CCC[C@H](N1)C(=O)OCC(C)(C)C2` [Compound A597], for which the IC50 against NRAS Q61R was 100 to 1000 nM; against KRAS Q61H, 100 to 1000 nM; at NRAS WT, 100 to 1000 nM; against NRAS Q61K, 100 to 1000 nM; with NCI-H358 (K-Ras G12C), less than 10 nM. For the same compound, the EC50 in experiment [1] is less than 5 µM.
With `CCn1c(-c2cccnc2[C@H](C)OC)c2c3cc(ccc31)-c1csc(n1)C[C@H](NC(=O)[C@H](C(C)C)N(C)C(=O)N1CCC[C@H]1c1ccccc1)C(=O)N1CCC[C@H](N1)C(=O)OCC(C)(C)C2` [Compound A599], the IC50 against NRAS Q61R was 1000 to 10000 nM; at KRAS Q61H it was 100 to 1000 nM; at NRAS WT, 1000 to 10000 nM; on NRAS Q61K it was 1000 to 10000 nM. Besides, the EC50 in experiment [1] is less than 5 µM.
On to `CCn1c(-c2cccnc2[C@H](C)OC)c2c3cc(ccc31)-c1csc(n1)C[C@H](NC(=O)[C@H](C(C)C)N(C)C(=O)N1CC3(CCN(C)C3)C1)C(=O)N1CCC[C@H](N1)C(=O)OCC(C)(C)C2` [Compound A602], for which the half-maximal inhibitory concentration (IC50) was 100 to 1000 nM on NRAS Q61R; 100 to 1000 nM against KRAS Q61H; 100 to 1000 nM on NRAS WT; 100 to 1000 nM against NRAS Q61K; less than 10 nM in the experiment on NCI-H358 (K-Ras G12C). Further, in experiment [1], the EC50 was less than 5 µM.
With `CCn1c(-c2cccnc2[C@H](C)OC)c2c3cc(ccc31)-c1cc(O)cc(c1)C[C@H](NC(=O)[C@H](C(C)C)N(C)C(=O)[C@]1(F)CCN(C(=O)OC)C1)C(=O)N1CCC[C@H](N1)C(=O)OCC(C)(C)C2` [Compound A616], the IC50 fell in the range of 100 to 1000 nM against NRAS Q61R, 10 to 100 nM against KRAS Q61H, 100 to 1000 nM against NRAS WT and 100 to 1000 nM against NRAS Q61K. Besides, the EC50 in experiment [1] is less than 5 µM.
